According to the supplement of paper PMC11451515:

System: NOMO1
Assay: cell viability relative to DMSO control; higher = less cytotoxic
Details: 48 h
Outline: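 In 1536-well plates, 5 μl of leukemia cells were seeded per well: 500 cells/well for NOMO1 or SEM and 1000 cells/well for P12-Ichikawa. Each line had first been adapted for at least four passages in each medium. Library compounds in DMSO were pin-dosed at 11 threefold concentrations between 47 μM and 0.79 nM, and CellTiter-Glo One luminescence was read after 48 h at 37°C. Viability is a per-plate percentage relative to DMSO wells, with cell-free wells as background.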

[1] = RPMI 5 mM glucose + 10% FBS, 0.000781 µM
[2] = RPMI 5 mM glucose + 10% FBS, 0.00234 µM
[3] = RPMI 5 mM glucose + 10% FBS, 0.00702 µM
[4] = RPMI 5 mM glucose + 10% FBS, 0.0211 µM
[5] = RPMI 5 mM glucose + 10% FBS, 0.0632 µM
[6] = RPMI 5 mM glucose + 10% FBS, 0.19 µM
[7] = RPMI 5 mM glucose + 10% FBS, 0.569 µM
[8] = RPMI 5 mM glucose + 10% FBS, 1.71 µM
[9] = RPMI 5 mM glucose + 10% FBS, 5.12 µM
[10] = RPMI 5 mM glucose + 10% FBS, 15.4 µM
[11] = RPMI 5 mM glucose + 10% FBS, 46.1 µM
[12] = RPMI 5 mM glucose + 10% dialyzed FBS, 0.000781 µM
[13] = RPMI 5 mM glucose + 10% dialyzed FBS, 0.00234 µM
[14] = RPMI 5 mM glucose + 10% dialyzed FBS, 0.00702 µM
[15] = RPMI 5 mM glucose + 10% dialyzed FBS, 0.0211 µM
[16] = RPMI 5 mM glucose + 10% dialyzed FBS, 0.0632 µM
[17] = RPMI 5 mM glucose + 10% dialyzed FBS, 0.19 µM
[18] = RPMI 5 mM glucose + 10% dialyzed FBS, 0.569 µM
[19] = RPMI 5 mM glucose + 10% dialyzed FBS, 1.71 µM
[20] = RPMI 5 mM glucose + 10% dialyzed FBS, 5.12 µM
[21] = RPMI 5 mM glucose + 10% dialyzed FBS, 15.4 µM
[22] = RPMI 5 mM glucose + 10% dialyzed FBS, 46.1 µM
[23] = HPLM + 10% dialyzed FBS, 0.000781 µM
[24] = HPLM + 10% dialyzed FBS, 0.00234 µM
[25] = HPLM + 10% dialyzed FBS, 0.00702 µM
[26] = HPLM + 10% dialyzed FBS, 0.0211 µM
[27] = HPLM + 10% dialyzed FBS, 0.0632 µM
[28] = HPLM + 10% dialyzed FBS, 0.19 µM
[29] = HPLM + 10% dialyzed FBS, 0.569 µM
[30] = HPLM + 10% dialyzed FBS, 1.71 µM
[31] = HPLM + 10% dialyzed FBS, 5.12 µM
[32] = HPLM + 10% dialyzed FBS, 15.4 µM
[33] = HPLM + 10% dialyzed FBS, 46.1 µM

SMILES | cell viability [1] [%] | cell viability [2] [%] | cell viability [3] [%] | cell viability [4] [%] | cell viability [5] [%] | cell viability [6] [%] | cell viability [7] [%] | cell viability [8] [%] | cell viability [9] [%] | cell viability [10] [%] | cell viability [11] [%] | cell viability [12] [%] | cell viability [13] [%] | cell viability [14] [%] | cell viability [15] [%] | cell viability [16] [%] | cell viability [17] [%] | cell viability [18] [%] | cell viability [19] [%] | cell viability [20] [%] | cell viability [21] [%] | cell viability [22] [%] | cell viability [23] [%] | cell viability [24] [%] | cell viability [25] [%] | cell viability [26] [%] | cell viability [27] [%] | cell viability [28] [%] | cell viability [29] [%] | cell viability [30] [%] | cell viability [31] [%] | cell viability [32] [%] | cell viability [33] [%]
C[C@H]([C@H](O)CCC(C)(C)O)[C@H]1CC[C@@]2(O)C/3=C/C(=O)[C@@H]4C[C@@H](O)[C@@H](O)C[C@]4(C)[C@H]3CC[C@]12C | 112 | 115 | 118 | 107 | 106 | 112 | 121 | 104 | 119 | 109 | 104 | 122 | 127 | 125 | 137 | 112 | 121 | 123 | 131 | 125 | 131 | 117 | – | – | – | – | – | – | – | – | – | – | –
O=C(NC1CCOCC1)c1ccc(-c2cc(-c3c[nH]nc3-c3ccccn3)ccn2)cc1 | 99.4 | 97.6 | 102 | 98.8 | 99.7 | 104 | 93.2 | 87.3 | 93.1 | 104 | 93.8 | 106 | 94.9 | 99.6 | 91.1 | 104 | 92.4 | 95.3 | 104 | 96.7 | 97.8 | 93 | 125 | 99.7 | 110 | 93.6 | 120 | 107 | 114 | 101 | 87.5 | 110 | 108
CN(C)Cc1ccc(-c2nc3cccc4c3n2CCNC4=O)cc1 | 87.2 | 108 | 94.7 | 103 | 98.3 | 102 | 111 | 106 | 97.2 | 103 | 104 | 98 | 102 | 90.8 | 110 | 115 | 119 | 110 | 116 | 126 | 124 | 118 | 91.1 | 99.5 | 115 | 116 | 124 | 107 | 109 | 121 | 129 | 112 | 99.4
CSC1=CC(=CC=C1)NC2=NC3=C(C=N2)/C=C(C(=O)N3C)/C4=C(Cl)C=CC=C4Cl | 96.1 | 124 | 128 | 109 | 118 | 101 | 121 | 118 | 103 | 116 | 102 | 84.7 | 95.5 | 104 | 91.3 | 120 | 118 | 109 | 112 | 111 | 94 | 108 | 96.6 | 114 | 118 | 101 | 119 | 101 | 108 | 107 | 115 | 114 | 108
CN(C)CCOC(c1ccccc1)c1ccccc1 | 112 | 111 | 106 | 121 | 117 | 106 | 115 | 107 | 107 | 101 | 53.6 | 94.6 | 112 | 101 | 113 | 122 | 111 | 110 | 109 | 104 | 119 | 64.6 | 94.4 | 84 | 105 | 116 | 111 | 112 | 112 | 113 | 109 | 104 | 83.5
C[C@H]1CN(C[C@@H](C)O1)CC(=O)NC2=CC=C3SC4=C(CC3=C2)C=CC=C4\C5=C\C(=O)\C=C(/O5)N6CCOCC6 | 93.4 | 125 | 121 | 118 | 107 | 106 | 98.7 | 106 | 96.8 | 64.2 | 55.8 | 85 | 108 | 107 | 106 | 104 | 113 | 100 | 97.3 | 85.5 | 62.7 | 45.2 | 100 | 125 | 108 | 123 | 126 | 128 | 118 | 89.2 | 72.5 | 39.2 | 35
COC1=CC=C2Nc3cc(Cl)ccc3C(N=C3C=C(CN4CCCC4)C(=O)C(CN4CCCC4)=C3)=C2N1 | 105 | 103 | 120 | 110 | 133 | 127 | 125 | 135 | 116 | 119 | 119 | – | – | – | – | – | – | – | – | – | – | – | – | – | – | – | – | – | – | – | – | – | –
COc1cc2c(N3CCN(C(=O)Nc4ccc(OC(C)C)cc4)CC3)ncnc2cc1OCCCN1CCCCC1 | 73.1 | 71.7 | 84.7 | 74.5 | 79.4 | 83.8 | 86.3 | 77.5 | 75.4 | 40 | 67.3 | 79.3 | 80.9 | 75.4 | 85.8 | 80.9 | 74 | 89.7 | 93.7 | 85.5 | 43.5 | 55.3 | 68.3 | 89.2 | 85.9 | 88.7 | 83.3 | 87.7 | 112 | 94.2 | 95.2 | 47.4 | 41.2
Cc1c[nH]c(/C=C2\C(=O)Nc3ccccc32)c1CCC(=O)O | 125 | 124 | 114 | 122 | 122 | 116 | 121 | 116 | 103 | 70.6 | 68.1 | 123 | 126 | 121 | 110 | 109 | 111 | 118 | 104 | 91.7 | 77.1 | 58.6 | 109 | 114 | 116 | 101 | 90.1 | 102 | 95.3 | 83 | 82.2 | 61.3 | 50.7
CC(=O)N1CCN(c2ccc(OCc3nn(C)c(C)c3-c3cccc4c(CCCOc5cc(C)c(Cl)c(C)c5)c(C(=O)O)n(Cc5cccnc5)c34)cc2)CC1 | 111 | 115 | 124 | 150 | 130 | 136 | 146 | 126 | 120 | 134 | 94.6 | 115 | 112 | 122 | 135 | 135 | 133 | 139 | 142 | 156 | 137 | 124 | 111 | 108 | 132 | 114 | 126 | 130 | 120 | 130 | 131 | 120 | 84.6
CCCCN(CCCC)CCC(O)c1cc2c(Cl)cc(Cl)cc2c2cc(C(F)(F)F)ccc12 (centres undefined) | 117 | 111 | 119 | 107 | 106 | 126 | 128 | 121 | 121 | 121 | 115 | 116 | 109 | 121 | 126 | 121 | 115 | 135 | 116 | 118 | 122 | 116 | 115 | 115 | 115 | 124 | 119 | 138 | 134 | 121 | 131 | 126 | 123
O=C/1\C=C(/OC(=C1)/C2=C3SC4=C(SC3=CC=C2)C=CC=C4)N5CCOCC5 | 79.8 | 93.2 | 91.1 | 19.4 | 92 | 91.9 | 94.7 | 96.7 | 89.1 | 89.3 | 90.3 | 81.3 | 93.6 | 98.1 | 33.1 | 88.2 | 104 | 107 | 99.3 | 83.7 | 81.2 | 86.2 | 93.3 | 94.6 | 103 | 32.3 | 112 | 103 | 122 | 105 | 84 | 90.1 | 82
Cc1cc2c(C(C)C)c(O)c(O)c(C=O)c2c(O)c1-c1c(C)cc2c(C(C)C)c(O)c(O)c(C=O)c2c1O | 100 | 116 | 104 | 109 | 107 | 106 | 115 | 97.1 | 98.5 | 92.8 | 12 | 115 | 115 | 114 | 121 | 114 | 102 | 103 | 106 | 110 | 94.6 | 27.5 | 122 | 123 | 135 | 137 | 115 | 107 | 116 | 105 | 105 | 100 | 50.8
Cc1ccc(-n2nc(C(C)(C)C)cc2NC(=O)Nc2ccc(OCCN3CCOCC3)c3ccccc23)cc1 | 102 | 101 | 113 | 103 | 104 | 97.1 | 107 | 106 | 95.8 | 95.4 | 98.1 | 88.2 | 105 | 111 | 106 | 106 | 108 | 118 | 120 | 99.9 | 107 | 96.2 | 104 | 103 | 119 | 123 | 114 | 104 | 111 | 115 | 120 | 114 | 96
C[C@H](NC(=O)C(=O)Nc1ccccc1C(C)(C)C)C(=O)N[C@@H](CC(=O)O)C(=O)COc1c(F)c(F)cc(F)c1F | 115 | 117 | 121 | 118 | 122 | 129 | 131 | 116 | 122 | 89.1 | 26.5 | – | – | – | – | – | – | – | – | – | – | – | 124 | 120 | 133 | 123 | 142 | 137 | 123 | 141 | 121 | 51.6 | 39
COc1cc2ncnc(-n3nc(-c4ccccn4)nc3N)c2cc1OC | 83.5 | 86.2 | 92.7 | 101 | 88.6 | 96.3 | 84.9 | 99.3 | 84.7 | 78 | 1.29 | 82.5 | 89.4 | 93 | 110 | 98.4 | 96.7 | 98.5 | 94.5 | 81.8 | 76.4 | 3.64 | 82.3 | 102 | 111 | 101 | 110 | 93.7 | 95.2 | 112 | 86.3 | 74.8 | 0.936
